{
  "source": "patent US20250369975A1",
  "about": "“METHOD FOR DETECTING TRANSTHYRETIN TETRAMER, AND METHOD FOR EVALUATING STABILITY” (SYSMEX CORPORATION, priority 2024, published 2025)",
  "assay_type_in_all_cases": "binding",
  "key": {"[1]": {"system": "TTR tetramer (recombinant human transthyretin WT, T119M, V30M)", "conditions": "probe solution 0.2 μM mixed with sample; FIG. 18A-B"}, "[2]": {"target": "T1, TTR tetramer (wild-type recombinant human transthyretin) (Homo sapiens, UniProt P02766)", "T1 construct": "purchased AlexoTech T-500-10", "experiment": "Example 5: HISCL-5000 automated immunoassay, tagged probe, streptavidin magnetic particle, ALP-labeled monoclonal anti-TTR antibody", "conditions": "R1 reagent 0.3 μM probe; WT TTR 10 and 100 μg/mL; FIG. 21B", "experimental": "A sample containing wild-type (WT) recombinant TTR at respective concentrations of 10 μg/mL and 100 μg/mL was prepared by diluting transthyretin (wild-type) human, recombinant (AlexoTech, T-500-10) with 1% BSA/0.5% casein/PBS.\n(2.1) R1 reagent As R1 buffer, a […] buffer (pH 8.0±0.05) containing 1% BSA, 0.15 g/L mouse IgG, 0.1% sodium azide, […], 0.1% Tween® 20 and 20 mg/mL alkaline phosphatase (AP) mutein was prepared. Probe C5 was diluted with R1 buffer, to prepare R1 reagent (0.1 μM) containing probe C5. Probe C6 was also diluted with R1 buffer, to prepare R1 reagent (0.3 μM) that contains probe C6.\nAs R3 buffer, a 0.1 mol/L HEPES buffer (pH 8.0±0.05) containing 1% BSA, 0.15 g/L murine IgG, 0.1% sodium azide, 0.15 mol/L NaCl, 0.1% Tween20.20 mg/mL AP mutein, 1.0 mmol/L MgCl, and 0.1 mmol/L ZnCl of 2 was prepared. An ALP-labeled monoclonal anti-TTR antibody was used as the labeled antibody capable of binding to the TTR monomer. […]\n50 μL of each R1 reagent was added to the cuvette, to which 30 μL of the sample was then added, followed by incubation for 2.5 minutes. […] Five minutes later, the chemiluminescence signal was measured with HISCL-5000. As a control (blank), the sample was similarly measured with use of 30 μL of 1% BSA/0.5% casein/PBS instead of the sample. […]"}, "[3]": {"system": "TTR tetramer (recombinant human transthyretin WT, T119M, V30M)", "conditions": "probe solution 10 μM; recombinant TTR 100 ng/mL; FIG. 14A-D"}, "[4]": {"system": "TTR tetramer (recombinant human transthyretin WT, T119M, V30M)", "conditions": "probe solution 0.3 μM immobilized on solid phase; recombinant TTR 100 ng/mL; FIG. 16A-B"}, "[5]": {"target": "T2, TTR tetramer in plasma sample (Homo sapiens, UniProt P02766)", "T2 construct": "serially diluting commercially available serum (ProMedex Corporation, 12011378); tissue ProMedex Corporation (serum); host or cells: serum and plasma mix", "experiment": "Example 3: same format, serially diluted plasma samples", "conditions": "probe solution 0.2 μM, FIG. 19B", "experimental": "(§1) (1.2) Blood sample Six serum samples were prepared by serially diluting commercially available serum (ProMedex Corporation, 12011378) with 1% BSA/0.5% casein/PBS. Also six plasma samples were prepared by serially diluting a commercially available plasma mix with 1% BSA/0.5% casein/PBS.\nThe sample containing the recombinant TTR and the plasma sample were the same as in Example 1. Probes C5 and C6 were diluted with 1% BSA/0.5% casein/PBS, to prepare a probe solution (0.2 μM). The same ALP-labeled polyclonal anti-TTR antibody as in Example 2 was diluted 3200 times with 1% BSA/0.1% goat IgG/0.01% mouse IgG/0.005% scavenger ALP/PBS, to prepare a labeled antibody solution. The substrate solution and solid phase of ALP were the same as those in Example 2.\n150 μL of each sample and 150 μL of the probe solution were mixed, and incubated at room temperature for 1 hour. As a control (blank), instead of the sample, 150 μL of 1% BSA/0.5% casein/PBS and 150 μL of the probe solution were mixed, and incubated in the same manner. […] 100 μL of a substrate solution of ALP was added to each well, and after 15 minutes, a chemiluminescence signal was measured with a plate reader. The samples were measured twice, and an average value of the two measured values was acquired. […]"}, "[6]": {"target": "T3, TTR tetramer in blood sample (serum, plasma) (Homo sapiens, UniProt P02766)", "T3 construct": "serially diluting commercially available serum (ProMedex Corporation, 12011378); tissue ProMedex Corporation (serum); host or cells: serum and plasma mix", "experiment": "Example 2: same format, serially diluted serum and plasma samples", "conditions": "probe immobilized on solid phase", "experimental": "as §1\nThe sample containing the recombinant TTR and the blood sample were the same as in Example 1. Probes C5 and C6 were diluted with 1% BSA/0.5% casein/PBS, to prepare a probe solution (0.3 μM). An ALP-labeled polyclonal anti-TTR antibody is used as the labeled antibody capable of binding to the TTR monomer. The labeled antibody was prepared by labeling a polyclonal rabbit anti-human prealbumin antibody (Agilent, A0002) with ALP by a usual method. […]\nTo each well of the plate, 300 μL of a blocking solution (1% BSA/0.5% casein/PBS) was added, followed by incubation for 1 hour at room temperature. […] 100 μL of a substrate solution of ALP was added to each well, and after 15 minutes, a chemiluminescence signal was measured with a plate reader. The samples were measured twice, and an average value of the two measured values was acquired. Results of measurement of the sample that contains the recombinant TTR are illustrated in FIGS. 16A and B. Measured results of the blood samples are illustrated in FIGS. 17A to D."}},
  "note": "Where two headings read alike, the source gives them in different places.",
  "data": [
    {"smiles": "O=C(CCCCC1SCC2NC(=O)NC21)NCCOCCOCCOCCOCCOCCOCCOCCOCCOCCOCCOCCOCCC(=O)Nc1ccc(/C=C/c2cc(Br)c(O)c(Br)c2)cc1", "note": "(stereo not shown) [Probe C6, Biotin-PEG12-Stilbene Derivative]", "values": [
      {"measurement": "chemiluminescence signal measured values of WT, T119M and V30M samples versus blank", "setting": "[1]", "value": "a result similar to that of FIG. 18 A"},
      {"measurement": "signal measured value versus level of recombinant TTR in the sample", "setting": "[2]", "value": "increased corresponding to the level of the recombinant TTR in the sample"},
      {"measurement": "chemiluminescence signal measured values of WT, T119M and V30M samples versus blank", "setting": "[3]", "value": "results similar to those of FIG. 14 A"},
      {"measurement": "chemiluminescence signal measured values of WT, T119M and V30M samples versus blank", "setting": "[4]", "value": "a result similar to that of FIG. 16 A"},
      {"measurement": "signal measured value of the plasma sample versus dilution factor", "setting": "[5]", "value": "increased according to the dilution factor"},
      {"measurement": "signal measured value of the plasma sample versus dilution factor", "setting": "[6]; serially diluted plasma, FIG. 17D", "value": "similarly increased according to the dilution factor"},
      {"measurement": "signal measured value of the serum sample versus dilution factor", "setting": "[6]; serially diluted serum, FIG. 17C", "value": "increased according to the dilution factor"}
    ]}
  ]
}
